Test results reported in patent US12655111B2, “Phenazine-based compounds” (CMBLU Energy AG, priority 2020, dated 2026).

Experiment: Redox flow battery cell test (flow-through laboratory cell), galvanostatic charge/discharge cycling with phenazine anolyte and ferrocyanide catholyte
Format: physicochemical
Settings: range: (i) upper charging value minus initial discharging value, (ii) initial charging value minus ultimate discharging value; from Table 1 (for II 0.87M)
Description: FT-Cells (“Flow Through”):
For electrochemical characterization, a small laboratory cell was used. A graphite felt (with an area of 6 cm^2, 6 mm in thickness, supplier: SGL Sigracell GFA 6EA) in combination with a bipolar plate (4.1 cm×4.1 cm, SGL Sigracell TF6) was employed as both the positive and negative electrode. A cation exchange membrane (630K or 620PE, supplier: fumatech) was used to separate the positive and negative electrolytes. The membrane was conditioned in 0.5 M Base (KOH/NaOH=50 mol %/50 mol %) for at least 150 h prior to each test. An anolyte volume of 12 mL was used for every experiment while the pH of the anolyte solution is adjusted using a 1:1 mixture of KOH/NaOH or solely KOH. The catholyte compositions are listed in table 1 and the catholyte was always employed in at least 1.05 fold stoichiometric excess in order to obtain charge limitation solely due to the phenazine electrolyte (see table 1). The catholyte volume for (IV) is 60 mL (0.4 M KOH; 0.4 M NaOH), for (III) 30 mL (0.2 M KOH and 0.2 M NaOH), and for (I) 20 mL (0.3 M KOH and 0.3 M NaOH). Both electrolytes were pumped by peristaltic pumps (Drifton BT100-1L, Cole Parmer Ismatec MCP and BVP Process IP 65) at a rate of 24 mL/min to the corresponding electrodes, respectively. The electrolyte reservoirs were purged with N2 gas for 1 h before start of charging and the inert atmosphere was maintained during the course of the experiments.
Electrochemical testing was performed on a BaSyTec (BaSyTec GmbH, 89176 Asselfingen, Germany) or a Bio-Logic (Bio-Logic Science Instruments, Seyssinet-Pariset 38170, France) battery test system. For galvanostatic cycling, the cell was charged at a current density of […] and discharged at the same current density with the in table 1 listed voltage cut-offs. […]

difference in plateaus [V] | SMILES
0.29-0.32 V | O=S(=O)(O)c1ccc2nc3cc(O)c(O)cc3nc2c1 [DHPS, 7,8-Dihydroxyphenazine-2-sulfonic acid, reference compound]
0.15-0.16 V | CN(C)c1cc2nc3ccc(S(=O)(=O)O)cc3nc2cc1O [I, 7-(dimethylamino)-8-hydroxyphenazine-2-sulfonic acid]
0.20-0.25 V | CN(CCO)c1cc2nc3ccc(S(=O)(=O)O)cc3nc2cc1O [IV, 7-[(2-hydroxyethyl)(methyl)amino]-8-hydroxyphenazine-2-sulfonic acid]
